This is an account of results in patent publication US11407748B2, “Substituted pyrido[1,2-a]pyrimidines and pyrazino[1,2-a]pyrimidines for enhancing AMPA receptor function” (Takeda Pharmaceutical Company Limited, priority 2017, dated 2022).

The target of this assay is T1, hGluR1 flip (Homo sapiens, UniProt P42261).
T1 construct: expressed in transfected cells; host or cells: CHO-K1
Description: AMPA receptor function-enhancing activity using calcium influx as index. It counts as cell-based. The following applies: test compound 30 μM with 3 mM glutamic acid; CHO-K1/GluR1 flip/stargazin-expressing cells; 100% = 3 mM glutamic acid + 300 μM cyclothiazide, 0% = 3 mM glutamic acid alone. The method, boiled down:
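CHO-K1 cells co-expressing human GluR1 flip and stargazin, loaded with Calcium5 dye with 1.25 mM probenecid. Test compound at 30 μM added with 3 mM glutamate; fluorescence followed 3 min. Activity % scaled between glutamate alone (0%) and glutamate plus 300 μM cyclothiazide (100%).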

T1 sequence (P42261 19-906 isoform P42261-2 limits assumed): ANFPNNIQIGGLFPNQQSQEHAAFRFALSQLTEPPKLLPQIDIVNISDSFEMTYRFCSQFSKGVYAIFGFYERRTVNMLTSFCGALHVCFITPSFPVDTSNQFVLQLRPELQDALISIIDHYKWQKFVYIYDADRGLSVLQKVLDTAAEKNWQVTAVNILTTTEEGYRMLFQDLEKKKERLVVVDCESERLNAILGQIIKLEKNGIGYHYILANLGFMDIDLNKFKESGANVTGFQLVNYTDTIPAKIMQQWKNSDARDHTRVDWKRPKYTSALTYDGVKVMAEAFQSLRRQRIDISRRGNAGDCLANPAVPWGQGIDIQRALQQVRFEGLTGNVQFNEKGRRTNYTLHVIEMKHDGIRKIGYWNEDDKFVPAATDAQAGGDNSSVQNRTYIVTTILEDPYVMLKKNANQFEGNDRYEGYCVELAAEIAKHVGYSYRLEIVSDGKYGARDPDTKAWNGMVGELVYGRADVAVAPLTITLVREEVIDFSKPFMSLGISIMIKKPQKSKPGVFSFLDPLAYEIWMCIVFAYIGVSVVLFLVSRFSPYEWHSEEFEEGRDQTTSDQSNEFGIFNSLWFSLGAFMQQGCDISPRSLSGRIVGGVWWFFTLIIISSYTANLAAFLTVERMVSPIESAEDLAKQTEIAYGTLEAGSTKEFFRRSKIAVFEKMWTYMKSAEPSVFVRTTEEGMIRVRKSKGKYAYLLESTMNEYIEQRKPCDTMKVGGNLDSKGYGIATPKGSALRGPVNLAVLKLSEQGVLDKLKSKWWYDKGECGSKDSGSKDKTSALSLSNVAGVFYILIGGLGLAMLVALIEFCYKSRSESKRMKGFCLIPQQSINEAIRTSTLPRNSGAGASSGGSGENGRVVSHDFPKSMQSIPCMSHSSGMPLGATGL
T1 sequence (Q9Y698 whole entry partner): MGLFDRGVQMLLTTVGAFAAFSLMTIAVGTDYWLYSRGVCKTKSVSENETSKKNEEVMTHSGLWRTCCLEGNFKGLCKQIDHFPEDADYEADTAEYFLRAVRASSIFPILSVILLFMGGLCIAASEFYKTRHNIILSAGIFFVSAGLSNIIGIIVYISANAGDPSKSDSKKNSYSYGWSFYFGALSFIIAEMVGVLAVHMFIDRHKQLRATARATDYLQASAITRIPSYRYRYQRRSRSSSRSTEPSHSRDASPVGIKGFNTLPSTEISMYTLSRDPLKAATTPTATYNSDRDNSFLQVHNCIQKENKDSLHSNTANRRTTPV

Consider `CO[C@@H]1CCN(C(=O)c2ccc(-c3cccn4c(=O)c(C)c(C(F)(F)F)nc34)cc2F)C1` [Example 90, 9-(3-fluoro-4-(((3R)-3-methoxypyrrolidin-1-yl)carbonyl)phenyl)-3-methyl-2-(trifluoromethyl)-4H-pyrido[1,2-a]pyrimidin-4-one], for which the activation at 30 µM came out at 89.3%. The same measure, in the same setting: under `Cc1c(C(F)(F)F)nc2c(-c3ccc(C(=O)N[C@H]4CCCOC4)cc3)cccn2c1=O` [Example 93, 4-(3-methyl-4-oxo-2-(trifluoromethyl)-4H-pyrido[1,2-a]pyrimidin-9-yl)-N-((3S)-tetrahydro-2H-pyran-3-yl)benzamide] stands 88.2%; under `O=C(N[C@H]1CCCOC1)c1ccc(-c2cccn3c(=O)c(Br)c(C(F)(F)F)nc23)cc1` [Example 92, 4-(3-bromo-4-oxo-2-(trifluoromethyl)-4H-pyrido[1,2-a]pyrimidin-9-yl)-N-((3S)-tetrahydro-2H-pyran-3-yl)benzamide], 78.9%.

`Cc1c(C(F)(F)F)nc2c(-c3ccc(C(=O)N4CCOC(C(F)F)C4)cc3)cccn2c1=O` (stereo not drawn) [Example 107, 9-(4-((2-(difluoromethyl)morpholin-4-yl)carbonyl)phenyl)-3-methyl-2-(trifluoromethyl)-4H-pyrido[1,2-a]pyrimidin-4-one]: the “hGluR1 flip/30 μM (%)” value was 86%. Turning to `CN(C(=O)c1ccc(-c2cccn3c(=O)cc(C(F)(F)F)nc23)cc1F)C1CCOCC1` [Example 82, 2-fluoro-N-methyl-4-(4-oxo-2-(trifluoromethyl)-4H-pyrido[1,2-a]pyrimidin-9-yl)-N-(tetrahydro-2H-pyran-4-yl)benzamide], the activation at 30 µM worked out at 81.4%. As for `O=C(c1ccc(-c2cccn3c(=O)cc(C(F)(F)F)nc23)cc1)N1CCC(O)(C(F)(F)F)C1` (stereo not drawn) [Example 16, 9-(4-((3-hydroxy-3-(trifluoromethyl)pyrrolidin-1-yl)carbonyl)phenyl)-2-(trifluoromethyl)-4H-pyrido[1,2-a]pyrimidin-4-one], the “hGluR1 flip/30 μM (%)” value is 88.3%.

`O=C(NC1CCOCC1)c1ccc(-c2cccn3c(=O)cc(C(F)(F)F)nc23)cc1` [Example 123, 4-(4-oxo-2-(trifluoromethyl)-4H-pyrido[1,2-a]pyrimidin-9-yl)-N-(tetrahydro-2H-pyran-4-yl)benzamide]: the activation at 30 µM stood at 83.2%. For `Cc1c(C(F)(F)F)nc2c(-c3ccc(C(=O)N4CCc5cccnc54)c(F)c3)cccn2c1=O` [Example 80, 9-(4-(2,3-dihydro-1H-pyrrolo[2,3-b]pyridin-1-ylcarbonyl)-3-fluorophenyl)-3-methyl-2-(trifluoromethyl)-4H-pyrido[1,2-a]pyrimidin-4-one], the activation at 30 µM came to 90.6%. For `O=C(c1ccc(-c2cccn3c(=O)c(Br)c(C(F)(F)F)nc23)cc1)N1CCOC(C(F)F)C1` (stereo not drawn) [Example 114, 3-bromo-9-(4-((2-(difluoromethyl)morpholin-4-yl)carbonyl)phenyl)-2-(trifluoromethyl)-4H-pyrido[1,2-a]pyrimidin-4-one], the “hGluR1 flip/30 μM (%)” value is reported as 77.2%. Consider `O=C(c1ccc(-c2cccn3c(=O)cc(C(F)(F)F)nc23)cc1)N1CCC(O)(C(F)(F)F)CC1` [Example 33, 9-(4-((4-hydroxy-4-(trifluoromethyl)piperidin-1-yl)carbonyl)phenyl)-2-(trifluoromethyl)-4H-pyrido[1,2-a]pyrimidin-4-one], for which the activation at 30 µM stood at 79.4%. Consider `Cc1c(C(F)(F)F)nc2c(-c3ccc(C(=O)N[C@H]4CCOC4)c(F)c3)cccn2c1=O` [Example 86, 2-fluoro-4-(3-methyl-4-oxo-2-(trifluoromethyl)-4H-pyrido[1,2-a]pyrimidin-9-yl)-N-((3S)-tetrahydrofuran-3-yl)benzamide], for which the activation at 30 µM was 103%. On the same count and under the same terms, in the case of `O=C(c1ccc(-c2cccn3c(=O)c(Br)c(C(F)(F)F)nc23)cc1F)N1CCc2cccnc21` [Example 79, 3-bromo-9-(4-(2,3-dihydro-1H-pyrrolo[2,3-b]pyridin-1-ylcarbonyl)-3-fluorophenyl)-2-(trifluoromethyl)-4H-pyrido[1,2-a]pyrimidin-4-one] it was 79.6%.
